In ChEMBL document CHEMBL3046870, “Inhibition of chloroplast electron transport reactions by trifluralin and diallate” (Plant Physiol, 1977):
Calls of active or inactive are those of the source. The calls are words filed in the database; no cut-off is given here.

Tests used:
[1] = Inhibition of Spinacia oleracea (spinach) chloroplast electron transport chain-mediated light-induced ATP-Pi exchange assessed as inorganic phosphate release
[2] = system: Spinacia oleracea; assay: Inhibition of Spinacia oleracea (spinach) chloroplast electron transport chain-mediated light-induced ATP-Pi exchange assessed as inorganic phosphate release at 200 uM treated during activation stage
[3] = target: T1, Photosystem II protein D1 (Spinacia oleracea, UniProt P69560); assay: Inhibition of Spinacia oleracea (spinach) photosystem II mediated noncyclic photophosphorylation assessed as 32P-orthophosphate incorporation into ATP […]
[4] = system: Spinacia oleracea; assay: Inhibition of Spinacia oleracea (spinach) chloroplast electron transport chain-mediated sulfhydryl-induced ATP-Pi exchange assessed as inorganic phosphate release at 200 uM
[5] = target: Photosystem II protein D1 (Spinacia oleracea) (UniProt P69560); assay: Inhibition of Spinacia oleracea (spinach) photosystem II assessed as light-induced re-reduction of Cyt-f at 100 uM added prior to illumination by dual wavelength spectrophotometer analysis
[6] = system: Spinacia oleracea; assay: Inhibition of Spinacia oleracea (spinach) chloroplast electron transport chain-mediated PMS-induced cyclic phosphorylation at 50 uM […]
[7] = system: Spinacia oleracea; assay: Inhibition of Spinacia oleracea (spinach) chloroplast electron transport chain-mediated rate of oxygen evolution per mg of chloroplast at 62.5 uM in presence of 0.31 mM DTT
[8] = system: Spinacia oleracea; assay: Inhibition of Spinacia oleracea (spinach) chloroplast electron transport chain-mediated PMS-induced cyclic phosphorylation at 10 uM by polarographically
[9] = target: T1, Photosystem II protein D1; assay: Inhibition of Spinacia oleracea (spinach) photosystem II assessed as electron flow from H20 to PDOX after 1 hr by polarographically
[10] = system: Spinacia oleracea; assay: Inhibition of Spinacia oleracea (spinach) chloroplast electron transport chain-mediated DAD-induced cyclic phosphorylation at 100 uM by polarographically
[11] = system: Spinacia oleracea; assay: Inhibition of Spinacia oleracea (spinach) chloroplast electron transport chain-mediated DAD-induced cyclic phosphorylation at 10 uM by polarographically
[12] = Inhibition of Spinacia oleracea (spinach) chloroplast electron transport chain assessed as electron flow from water to ferricyanide by polarographically
[13] = target: Photosystem II protein D1 (Spinacia oleracea) (UniProt P69560); assay: Inhibition of Spinacia oleracea (spinach) photosystem II assessed as electron flow from H20 to PDOX at 300 uM after 1 hr by polarographically
[14] = system: Spinacia oleracea; assay: Inhibition of Spinacia oleracea (spinach) chloroplast electron transport chain-mediated rate of oxygen evolution per mg of chloroplast at 125 uM
[15] = system: Spinacia oleracea; assay: Inhibition of Spinacia oleracea (spinach) chloroplast electron transport chain-mediated rate of oxygen evolution per mg of chloroplast at 62.5 uM
[16] = system: Spinacia oleracea; assay: Inhibition of Spinacia oleracea (spinach) chloroplast electron transport chain-mediated DAD-induced cyclic phosphorylation at 50 uM by polarographically
[17] = target: T2, Photosystem I iron-sulfur center (Spinacia oleracea) (UniProt P10098); assay: Inhibition of Spinacia oleracea (spinach) photosystem I assessed as light-induced oxidation of Cyt-f at 100 uM added prior to illumination by dual wavelength spectrophotometer analysis
T2 sequence (whole entry): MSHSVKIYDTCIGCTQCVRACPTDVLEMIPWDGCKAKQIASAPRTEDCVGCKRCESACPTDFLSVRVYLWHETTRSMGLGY

[18] = system: Spinacia oleracea; assay: Inhibition of Spinacia oleracea (spinach) chloroplast electron transport chain-mediated sulfhydryl-induced ATP-Pi exchange assessed as inorganic phosphate release at 200 uM treated during incubation stage
[19] = system: Spinacia oleracea; assay: Inhibition of Spinacia oleracea (spinach) chloroplast electron transport chain-mediated PMS-induced cyclic phosphorylation at 100 uM by polarographically
[20] = system: Spinacia oleracea; assay: Inhibition of Spinacia oleracea (spinach) chloroplast electron transport chain-mediated PMS-induced cyclic phosphorylation at 25 uM […]
[21] = Inhibition of Spinacia oleracea (spinach) chloroplast electron transport chain-mediated PMS-induced cyclic phosphorylation […]
[22] = system: Spinacia oleracea; assay: Inhibition of Spinacia oleracea (spinach) chloroplast electron transport chain-mediated rate of oxygen evolution per mg of chloroplast at 125 uM preincubated with DTT in dark condition for 5 min presence of 0.31 mM DTT
[23] = system: Spinacia oleracea; assay: Inhibition of Spinacia oleracea (spinach) chloroplast electron transport chain-mediated DAD-induced cyclic phosphorylation at 25 uM by polarographically
[24] = system: Spinacia oleracea; assay: Inhibition of Spinacia oleracea (spinach) chloroplast electron transport chain-mediated PMS-induced cyclic phosphorylation at 200 uM […]
[25] = system: Spinacia oleracea; assay: Inhibition of Spinacia oleracea (spinach) chloroplast electron transport chain-mediated sulfhydryl-induced ATP-Pi exchange assessed as inorganic phosphate release at 200 uM treated during activation stage
[26] = target: T2, Photosystem I iron-sulfur center (Spinacia oleracea); assay: Inhibition of Spinacia oleracea (spinach) photosystem I assessed as electron flow from ascorbate/DAD to methylviologen at >200 uM after 1 hr by polarographically
[27] = system: Spinacia oleracea; assay: Inhibition of Spinacia oleracea (spinach) chloroplast electron transport chain-mediated light-induced ATP-Pi exchange assessed as inorganic phosphate release at 200 uM treated during incubation stage
[28] = Inhibition of Spinacia oleracea (spinach) chloroplast electron transport chain-mediated Mg2+-ATPase activity assessed as inorganic phosphate release
[29] = system: Spinacia oleracea; assay: Inhibition of Spinacia oleracea (spinach) chloroplast electron transport chain-mediated rate of oxygen evolution per mg of chloroplast at 125 uM in presence of 0.31 mM DTT
[30] = system: Spinacia oleracea; assay: Inhibition of Spinacia oleracea (spinach) chloroplast electron transport chain-mediated DAD-induced cyclic phosphorylation at 200 uM by polarographically
[31] = Inhibition of Spinacia oleracea (spinach) chloroplast electron transport chain-mediated sulfhydryl-induced ATP-Pi exchange assessed as inorganic phosphate release
[32] = Inhibition of Spinacia oleracea (spinach) chloroplast electron transport chain-mediated noncyclic photophosphorylation assessed as 32P-orthophosphate incorporation into ATP […]
[33] = system: Spinacia oleracea; assay: Inhibition of Spinacia oleracea (spinach) chloroplast electron transport chain-mediated light-induced ATP-Pi exchange assessed as inorganic phosphate release at 200 uM
[34] = system: Spinacia oleracea; assay: Inhibition of Spinacia oleracea (spinach) chloroplast electron transport chain-mediated DAD-induced cyclic phosphorylation up to 200 uM by polarographically in presence of ascorbate in red light
[35] = system: Spinacia oleracea; assay: Inhibition of Spinacia oleracea (spinach) chloroplast electron transport chain-mediated DAD-induced cyclic phosphorylation up to 200 uM by polarographically in absence of DCMU in white light
[36] = target: T2, Photosystem I iron-sulfur center (Spinacia oleracea); assay: Inhibition of Spinacia oleracea (spinach) photosystem I assessed as light-induced oxidation of Cyt-f at 200 uM added prior to illumination by dual wavelength spectrophotometer analysis
[37] = system: Spinacia oleracea; assay: Inhibition of Spinacia oleracea (spinach) chloroplast electron transport chain-mediated DAD-induced cyclic phosphorylation up to 200 uM by polarographically in absence of DCMU in red light
[38] = system: Spinacia oleracea; assay: Inhibition of Spinacia oleracea (spinach) chloroplast electron transport chain assessed as residual electron flow from water to ferricyanide up to 300 uM by polarographically relative to control
[39] = system: Spinacia oleracea; assay: Inhibition of Spinacia oleracea (spinach) chloroplast electron transport chain assessed as residual activity of noncyclic electron flow using methylviologen as acceptor up to 300 uM by polarographically relative to control
[40] = target: Photosystem II protein D1 (Spinacia oleracea) (UniProt P69560); assay: Inhibition of Spinacia oleracea (spinach) photosystem II mediated noncyclic photophosphorylation assessed as 32P-orthophosphate incorporation into ATP up to 300 uM by polarographically
[41] = target: Photosystem II protein D1 (Spinacia oleracea) (UniProt P69560); assay: Inhibition of Spinacia oleracea (spinach) photosystem II assessed as light-induced re-reduction of Cyt-f at 200 uM added prior to illumination by dual wavelength spectrophotometer analysis
[42] = Inhibition of Spinacia oleracea (spinach) chloroplast electron transport chain-mediated noncyclic electron flow using methylviologen as acceptor by polarographically
[43] = system: Spinacia oleracea; assay: Inhibition of Spinacia oleracea (spinach) chloroplast electron transport chain-mediated rate of oxygen evolution per mg of chloroplast at 62.5 uM preincubated with DTT in dark condition for 5 min presence of 0.31 mM DTT
[44] = target: T2, Photosystem I iron-sulfur center (Spinacia oleracea); assay: Inhibition of Spinacia oleracea (spinach) photosystem I mediated noncyclic photophosphorylation assessed as 32P-orthophosphate incorporation into ATP up to 300 uM […]

Compound | IC50 [1] | inhibition [2] | inhibition [4] | inhibition [6] | Activity [7] | inhibition [8] | inhibition [10] | inhibition [11] | IC50 [12] | Activity [15] | inhibition [16] | inhibition [18] | inhibition [19] | inhibition [20] | inhibition [23] | inhibition [24] | inhibition [25] | inhibition [26] | inhibition [27] | IC50 [28] | also measured
CC(C)N(C(=O)SC/C(Cl)=C/Cl)C(C)C [Diallate] | 20 µM | Active | Active | 54% | 97 µmol/h | 8% | 20% | 8% | 20 µM | 105 µmol/h | 48% | Active | 52% | 25% | 32% | 66% | Active | inactive | Active | 65 µM | IC50 [3]: 100 µM; inhibition [5]: Active; IC50 [9]: 75 µM; inhibition [13]: Active; Activity [14]: 40 µmol/h; inhibition [17]: inactive; IC50 [21]: 50 µM; Activity [22]: 30 µmol/h; Activity [29]: 30 µmol/h; inhibition [30]: 32%; IC50 [31]: 20 µM; IC50 [32]: 25 µM; inhibition [33]: Active
CCCN(CCC)c1c([N+](=O)[O-])cc(C(F)(F)F)cc1[N+](=O)[O-] [TRIFLURALIN] | 20 µM | Active | Active | 18% | 64 µmol/h | 4% | 17% | 6% | 10 µM | 62 µmol/h | 28% | Active | 16% | 16% | 24% | 20% | Active | inactive | Active | 90 µM | inhibition [34]: Active; inhibition [35]: Active; inhibition [36]: inactive; inhibition [37]: Active; Activity [38]: 10%; Activity [39]: 10%; inhibition [40]: inactive; inhibition [41]: Active; Imax [13]: 50%; IC50 [42]: 10 µM; Activity [43]: 60 µmol/h; inhibition [44]: inactive; inhibition [30]: 6%; IC50 [31]: 20 µM; IC50 [32]: 50 µM; inhibition [33]: Active
